Data on 26 compounds can be found in patent publication US9925189B2, “Heterocyclic receptor agonists for the treatment of diabetes and metabolic disorders” (CymaBay Therapeutics, Inc., priority 2006, dated 2018).

In one assay the target is T1, IC-GPCR2 (Homo sapiens, UniProt Q8TDV5, S309L).
T1 construct: expressed in transfected cells
T1 sequence (Q8TDV5 1-335 S309L): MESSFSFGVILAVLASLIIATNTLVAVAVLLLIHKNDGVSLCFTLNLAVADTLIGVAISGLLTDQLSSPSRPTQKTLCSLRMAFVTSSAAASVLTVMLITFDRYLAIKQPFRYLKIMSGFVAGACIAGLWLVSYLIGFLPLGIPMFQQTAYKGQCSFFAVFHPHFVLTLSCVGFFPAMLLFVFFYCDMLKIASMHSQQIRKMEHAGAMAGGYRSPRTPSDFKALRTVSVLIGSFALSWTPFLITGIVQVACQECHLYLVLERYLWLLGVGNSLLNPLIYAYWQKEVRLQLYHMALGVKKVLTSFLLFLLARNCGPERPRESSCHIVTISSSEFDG
Kind of assay: Stimulation of cAMP in CHO cells stably expressing IC-GPCR2 (HTRF cAMP assay). The assay is classed as cell-based. The settings on record: 0.5 h, 30 minutes, IC-GPCR2 stably expressing CHO cells, read-out: Activity at 10 uM (% change in FRET signal from DMSO control). As for the experimental part:
This assay was developed using a stable cell line expressing IC-GPCR-2, generated as follows. IC-GPCR2 (SEQ ID NO:1) was cloned into Gateway pDEST 40vector (Invitrogen), using the Gateway cloning system (invitrogen) according to the manufacturer's instructions. A stable cell line was generated by transfecting a 10 cm plate of CHO cells (source) with 8 ug of this construct using Transit-CHO transfection kit (Mirus). CHO cells were plated the day prior to transfection at a density of 3,000,000 cells/plate. Clones were selected using the antibiotic G418 at 500 ug/ml. 23 clones were picked and assayed for the expression of the receptor by measuring changes in intracellular cAMP levels in response to an IC-GPCR2 agonist.
To measure cAMP activity in response to IC-GPCR2 agonist, the clones were plated in 96 well plates at 17500 cells per well. On the day after plating, cells were incubated with the IC-CPCR2 agonist at […] for 30 minutes in Ham's F12 Media (Gibco) with 0.04% DMSO. cAMP was measured using the cAMP dynamic kit from Cis Bio (Bedford, Mass.) according to the manufacturer's instructions. Briefly, cells were lysed, and cAMP levels determined by competitive immunoassay using D2 labeled cAMP, and europium cryptate tagged anti cAMP antibody. When in close proximity, the D2 and europium cryptate undergo fluorescence resonance energy transfer (FRET), which is measured as a fluorescence ratio (665 nm/620 nm). Unlabelled cAMP in the cell lysate competed with the D2 labeled cAMP for the europium crypate labeled antibody. The resulting decrease in FRET signal corresponded to intracellular cAMP levels. Fluorescence was read on a BMG Labtech PHERAstar, software version 1.50.
Compounds were dissolved in 100% DMSO to a concentration of […] to provide stock solutions. To determine activity against IC-GPCR2, compounds were incubated with IC-GPCR2 stably expressing cells (described above), at 6-8 concentrations ranging from 0.00003 to 10 micromolar, in 96 well plates, in 50 ul of Hams F12 media for 30 minutes. Cells were plated at 17500 cells per well 1 day before running the assay. All compounds were also screened against the parental CHO cells. cAMP was measured using the cAMP dynamic kit from Cis Bio (Bedford, Mass.), according to the manufacturer's instructions. Briefly, cells were lysed and cAMP levels determined by competitive immunoassay using D2 labeled cAMP, and europium cryptate tagged anti cAMP antibody. When in close proximity, the D2 and europium cryptate undergo fluorescence resonance energy transfer (FRET), which is measured as a fluorescence ratio (665 nm/620 nm). Unlabelled cAMP in the cell lysate competed with the D2 labeled cAMP for the europium crypate labeled antibody. The resulting decrease in FRET signal corresponded to intracellular cAMP levels.
Activities of compounds disclosed in Table 1 and Table 2 below are expressed as the % change in FRET signal from DMSO control. “*” no activity observed when tested at 10 micromolar but no higher concentrations were tested. NT indicates the compound was not tested at the indicated concentration.
(TR-FRET usually uses a lanthanide donor and a delayed reading to cut background.)
Regarding `Brc1cnc(N2CCC(c3nc(COc4ccc(-n5cnnn5)cc4)cs3)CC2)nc1` [Example 54, 5-Bromo-2-{4-[4-(4-tetrazol-1-yl-phenoxymethyl)-thiazol-2-yl]-piperidin-1-yl}-pyrimidine], the activation at 10 µM was 58%.
For `Fc1cnc(N2CCC(c3nc(COc4ccc(-n5cnnn5)cc4)cs3)CC2)nc1` [Example 55, 5-Fluoro-2-{4-[4-(4-tetrazol-1-yl-phenoxymethyl)-thiazol-2-yl]-piperidin-1-yl}-pyrimidine], the activation at 10 µM was 66%.
On the same count and under the same terms, the result for `Cc1cnc(N2CCC(c3nc(COc4ccc(-n5cnnn5)cc4)cs3)CC2)nc1Cl` [Example 57, 4-Chloro-5-methyl-2-{4-[4-(4-tetrazol-1-yl-phenoxymethyl)-thiazol-2-yl]-piperidin-1-yl}-pyrimidine] reads 7%; that for `Clc1ccc(-c2cnc(N3CCC(c4nc(COc5ccc(-n6cnnn6)cc5)cs4)CC3)nc2)cc1` [Example 59], 70%.
Take `Clc1cnc(N2CCC(c3nc(COc4ccc(-n5cnnn5)cc4)cs3)CC2)nc1` [Example 60]: the activation at 10 µM was 60%.
With `COc1ccc(-c2cnc(N3CCC(c4nc(COc5ccc(-n6cnnn6)cc5)cs4)CC3)nc2)cc1` [Example 66, 5-(4-Methoxy-phenyl)-2-{4-[4-(4-tetrazol-1-yl-phenoxymethyl)-thiazol-2-yl]-piperidin-1-yl}-pyrimidine], the activation at 10 µM is 57%.
The same measure, in the same setting: for `COc1cnc(N2CCC(c3nc(COc4ccc(-n5cnnn5)cc4)cs3)CC2)nc1` [Example 68, 5-Methoxy-2-{4-[4-(4-tetrazol-1-yl-phenoxymethyl)-thiazol-2-yl]-piperidin-1-yl}-pyrimidine] the value was 53%; for `Cc1ccc(N2CCC(c3nc(COc4ccc(-n5cnnn5)cc4)cs3)CC2)nc1` [Example 69, 5′-Methyl-4-[4-(4-tetrazol-1-yl-phenoxymethyl)-thiazol-2-yl]-3,4,5,6-tetrahydro-2H-[1,2′]bipyridinyl], 74%; for `FC(F)(F)c1ccc(N2CCC(c3nc(COc4ccc(-n5cnnn5)cc4)cs3)CC2)nc1` [Example 71, 4-[4-(4-Tetrazol-1-yl-phenoxymethyl)-thiazol-2-yl]-5′-trifluoromethyl-3,4,5,6-tetrahydro-2H-[1,2′]bipyridinyl], 88%.
For `O=Cc1ccc(N2CCC(c3nc(COc4ccc(-n5cnnn5)cc4)cs3)CC2)nc1` [Example 72, 4-[4-(4-Tetrazol-1-yl-phenoxymethyl)-thiazol-2-yl]-3,4,5,6-tetrahydro-2H-[1,2′]bipyridinyl-5′-carbaldehyde], the activation at 10 µM is 78%.
On to `CS(=O)(=O)c1ccc(OCc2csc(C3CCN(c4nc5ccccc5o4)CC3)n2)cc1` [Example 74, 2-{4-[4-(4-Methanesulfonyl-phenoxymethyl)-thiazol-2-yl]-piperidin-1-yl}-benzooxazole], for which the activation at 10 µM worked out at 17%.
Same read-out and setting: for `CCc1cnc(N2CCC(c3nc(COc4ccc(S(C)(=O)=O)cc4F)cs3)CC2)nc1` [Example 76, 5-Ethyl-2-{4-[4-(2-fluoro-4-methanesulfonyl-phenoxymethyl)-thiazol-2-yl]-piperidin-1-yl}-pyrimidine] the value was 74%; for `CC(C)(C)OC(=O)N1CCC(C)(c2nc(COc3ccc(S(C)(=O)=O)cc3)cs2)CC1` [Example 78, 4-[4-(4-Methanesulfonyl-phenoxymethyl)-thiazol-2-yl]-4-methyl-piperidine-1-carboxylic acid tert-butyl ester], 43%; for `CC(C)(C)OC(=O)N1CCC(c2nc(COc3ccc(S(C)(=O)=O)cc3)no2)CC1` [Example 81, 4-[3-(4-Methanesulfonyl-phenoxymethyl)-[1,2,4]oxadiazol-5-yl]-piperidine-1-carboxylic acid tert-butyl ester], 59%.
Still for that read-out and setting: the result for `CC(C)(C)OC(=O)N1CCC(c2noc(COCc3ccccc3)n2)CC1` [Example 83, 4-(5-Benzyloxymethyl-[1,2,4]oxadiazol-3-yl)-piperidine-1-carboxylic acid tert-butyl ester] reads 27%.
As for `CCc1cnc(N2CCC(c3nc(COc4ccc(S(C)(=O)=O)cc4)no3)CC2)nc1` [Example 84, 5-Ethyl-2-{4-[3-(4-methanesulfonyl-phenoxymethyl)-[1,2,4]oxadiazol-5-yl]-piperidin-1-yl}-pyrimidine], the activation at 10 µM is 59%.
On the same count and under the same terms, the result for `CC(C)(C)OC(=O)N1CCC(O)(c2nc(COc3ccc(S(C)(=O)=O)cc3)cs2)CC1` [Example 86, 4-Hydroxy-4-[4-(4-methanesulfonyl-phenoxymethyl)-thiazol-2-yl]-piperidine-1-carboxylic acid tert-butyl ester] reads 49%.
`CC(C)(C)OC(=O)N1CCC(F)(c2nc(COc3ccc(S(C)(=O)=O)cc3)cs2)CC1` [Example 87, 4-Fluoro-4-[4-(4-methanesulfonyl-phenoxymethyl)-thiazol-2-yl]-piperidine-1-carboxylic acid tert-butyl ester]: the activation at 10 µM is 62%.
Regarding `CCc1cnc(N2CCC(F)(c3nc(COc4ccc(S(C)(=O)=O)cc4)cs3)CC2)nc1` [Example 88, 5-Ethyl-2-{4-fluoro-4-[4-(4-methanesulfonyl-phenoxymethyl)-thiazol-2-yl]-piperidin-1-yl}-pyrimidine], the activation at 10 µM was determined as 49%.
As for `CCc1cnc(N2CCC(F)(c3ncc(COc4ccc(S(C)(=O)=O)cc4)s3)CC2)nc1` [Example 90, 5-Ethyl-2-{4-fluoro-4-[5-(4-methanesulfonyl-phenoxymethyl)-thiazol-2-yl]-piperidin-1-yl}-pyrimidine], the activation at 10 µM is 64%.
On to `CC(C)(C)OC(=O)N1CCN(c2nc(COc3ccc(S(C)(=O)=O)cc3)cs2)CC1` [Example 91, 4-[4-(4-Methanesulfonyl-phenoxymethyl)-thiazol-2-yl]-piperazine-1-carboxylic acid tert-butyl ester], for which the activation at 10 µM was found to be 28%.
Same read-out and setting: the result for `CC(C)CS(=O)(=O)N1CCN(c2nc(COc3ccc(S(C)(=O)=O)cc3)cs2)CC1` [Example 92, 1-[4-(4-Methanesulfonyl-phenoxymethyl)-thiazol-2-yl]-4-(2-methyl-propane-1-sulfonyl)-piperazine] reads 14%; that for `CC(C)(C)OC(=O)N1CCC(c2nc(CNc3ccc(F)nc3)cs2)CC1` [Example 94, 4-{4-[(6-Fluoro-pyridin-3-ylamino)-methyl]-thiazol-2-yl}-piperidine-1-carboxylic acid tert-butyl ester], 48%.
For `CC(C)c1noc(N2CCC(c3nc(COc4ccc(-n5cnnn5)cc4)cs3)CC2)n1` [Example 95, 1-(3-Isopropyl-[1,2,4]oxadiazol-5-yl)-4-[4-(4-tetrazol-1-yl-phenoxymethyl)-thiazol-2-yl]-piperidine], the activation at 10 µM came to 63%.
The same measure, in the same setting: for `CCc1noc(N2CCC(c3nc(COc4ccc(-n5cnnn5)cc4)cs3)CC2)n1` [Example 96, 1-(3-Ethyl-[1,2,4]oxadiazol-5-yl)-4-[4-(4-tetrazol-1-yl-phenoxymethyl)-thiazol-2-yl]-piperidine] the value was 79%.

The same assay, now with this note: 30 minutes, IC-GPCR2 stably expressing CHO cells.
As to `CCc1cnc(N2CCC(c3nc(COc4ccc(-n5cnnn5)cc4)cs3)CC2)nc1` [Example 52, 5-Ethyl-2-{4-[4-(4-tetrazol-1-yl-phenoxymethyl)-thiazol-2-yl]-piperidin-1-yl}-pyrimidine], the “Activity at 10 uM (% change in FRET signal from DMSO control)” value is 67%.
